Series [1] concerns chloroquine resistant P. falciparum DD2 strain. In words: In vitro growth of P. falciparum DD2, 3H-hypoxanthine uptake (Example 15). It counts as cell-based, Plasmodium falciparum. Particulars: title: percentage inhibition of 3H-hypoxanthine uptake.
The subject of the next series is P. falciparum. As to the kind of experiment: P. falciparum growth in vitro (Table 14.1, strain not stated). In kind it is cell-based. Particulars: Plasmodium falciparum, read-out: inhibition of malaria parasites (middle figure) (converted). Put shortly:
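Parasitized erythrocytes (~1% parasitemia) in RPMI with graded compound concentrations, cultured 48 h. 3H-hypoxanthine added for the final 24 h. Growth measured as 3H-hypoxanthine incorporation into parasite DNA by liquid scintillation.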

A further series has as its system human lymphocytes. As to the kind of experiment: Lymphocyte Proliferation Assay, 3H-thymidine incorporation (Example 13). To be noted: Homo sapiens, Lymphocyte, read-out: inhibition of lymphocytes (lower figure). In general terms: Uptake of a labelled nucleoside into DNA is a usual measure of proliferation.
Series [2] deals with chloroquine-sensitive P. falciparum 3D7A strain. As to the kind of experiment: In vitro growth of P. falciparum 3D7A, 3H-hypoxanthine uptake (Example 15). It counts as cell-based, Plasmodium falciparum. To be noted: for Percentage inhibition of 3H-hypoxanthine uptake (mean ± SEM): title: percentage inhibition of 3H-hypoxanthine uptake.
A short description of series [3]: 4-Hydroxychalcone toxicity study in mice, i.p. (Example 22). It counts as in vivo, BALB/c female mice. Particulars: for No. died after 24 h: n 4. How it is done: Mice. BALB/c female mice, 8 weeks old, 20 g body weight.
Drug. 4Hydroxychalcone prepared as in Example 2.
LD50. 80 mg of 4hydroxychalcone was dissolved in 0.2 ml of 99% (v/v) ethanol, and then mixed with 240 mg of Brij 35 dissolved in 19.8 ml of buffer pH 73 (NaH2PO4.H2O 26 mg, Na2HPO4.2H2O 520 mg and distilled water 100 ml), and then sterile filtered through a 0.22 μm Millipore filter. Drug was injected intraperitoneally into mice once.

Another series has as its system L. major promastigotes. In words: L. major promastigotes from 4-days cultures, 3H-thymidine uptake (Examples 5, 14). In kind it is cell-based, Leishmania major. To be noted: Leishmania major, Table 14.1, read-out: percentage inhibition of promastigotes (upper figure). The gist of the method:
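Promastigotes harvested on day 4 of culture were exposed to compound, then pulsed with 100 μC 3H-thymidine for a further 18 h. Cells were collected on filter paper, washed, and incorporated radioactivity counted by scintillation.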

Series [4] concerns Strain = H37RV. As to the kind of experiment: MIC with and without 10% human serum. It counts as cell-based. To be noted: Mycobacterium tuberculosis, H37RV.
Series [5] has as its system Strain = H37RV. Particulars: cited from earlier work.
Setting [6] is: with 10% Human Serum, read-out: MIC+serum.
Setting [7] is: without 10% Human Serum, read-out: MIC−serum.

What is called melting point is the temperature, or range, at which the solid turns liquid. One may read the inhibition as the relative decrease from the control value, in per cent. The MIC is the smallest concentration in the dilution series that meets the test's criterion for growth inhibition.

SMILES strings stand for the structures. Converted amounts (≈) assume the structure as drawn. Read-outs that look alike come from different tables or passages of the source.

The compound `C=CCOc1ccc(C(=O)/C=C/c2cccc(OC)c2OC)cc1` [2,3-Dimethoxy-4′-allyloxychalcone, 2,3-dimethoxy-4′-prop-2-enyloxychalcone] had a melting point of 98 to 99 °C. The “Growth in % of control (mean ± SEM)” value in [1] (0.5 μg/ml) is 28.5 ± 9.6%. Moreover, in series [1] (1 μg/ml), the “Growth in % of control (mean ± SEM)” value is listed as 29.6 ± 10.9%. In addition, the “Growth in % of control (mean ± SEM)” value in [1] (5 μg/ml) is given as 22.2 ± 10.1%. Moreover, in series [1] (10 μg/ml), the “Growth in % of control (mean ± SEM)” value came to 49.9 ± 9.1%.

For the compound `C=CCOc1ccc(C(=O)/C=C/c2c(OC)cccc2OC)cc1` [2,6-Dimethoxy-4′-allyloxychalcone, 2,6-dimethoxy-4′-prop-2-enyloxychalcone], the melting point was in the range of 102 to 103 °C. Moreover, the “Growth in % of control (mean ± SEM)” value in series [1] (0.5 μg/ml) is 23.3 ± 10.9%. Besides, in series [1] (1 μg/ml), the “Growth in % of control (mean ± SEM)” value worked out at 24.3 ± 9.5%. The “Growth in % of control (mean ± SEM)” value in series [1] (5 μg/ml) worked out at 40.2 ± 8.7%. Further, in series [1] (10 μg/ml), the “Growth in % of control (mean ± SEM)” value worked out at 56.7 ± 8.9%.

In turn, `COc1ccc(/C=C/C(=O)c2ccc(O)cc2)cc1OC` [3,4-Dimethoxy-4′-hydroxychalcone, 3,4-dimethoxy-4′-hydroxychalcone] showed a melting point of 193 to 198 °C. Also, the “Growth in % of control (mean ± SEM)” value in [1] (0.5 μg/ml) is listed as 9.3 ± 9.2%. In addition, the “Growth in % of control (mean ± SEM)” value in series [1] (1 μg/ml) is on record as 7.1 ± 8.1%. For the same compound, the “Growth in % of control (mean ± SEM)” value in [1] (5 μg/ml) was 48.5 ± 8.4%. Moreover, the “Growth in % of control (mean ± SEM)” value in series [1] (10 μg/ml) amounted to 82.6 ± 4.7%.

With `O=C(/C=C/c1ccc(O)cc1)c1ccccc1` [4-Hydroxychalcone, 4-hydroxychalcone], the results for the inhibition at 0.5 µg/mL in the series on P. falciparum (0.5 μg/ml) and with L. major promastigotes (0.5 μg/ml) were 20.5% and 7%, respectively. Also, the figures for the inhibition at 1 µg/mL in the series on P. falciparum (1 μg/ml), in the series on human lymphocytes and in the series on L. major promastigotes (1 μg/ml) were 29.2%, 2.24% and 49.1 ± 16.8%, respectively. Besides, the values for the inhibition at 5 µg/mL in the series on P. falciparum (5 μg/ml), with human lymphocytes and with L. major promastigotes (5 μg/ml) were 61.3%, 7.73% and 80.1 ± 12.6%, respectively. For the same compound, the inhibition at 10 µg/mL was 88.2% in the series with P. falciparum (10 μg/ml), 14.2% with human lymphocytes and 91 ± 5.4% with L. major promastigotes (10 μg/ml). Moreover, the IC50 in series [2] (Plasmodium falciparum, read-out: concentration in which growth was retarded by 50%) lay within 1 to 5 µg/mL (≈ 4.46 to 22.3 µM). The “Percentage inhibition of 3H-hypoxanthine uptake (mean ± SEM)” value in [2] (0.5 μg/ml) is 20.5 ± 10.9%; in [2] (1 μg/ml), 29.2 ± 7.7%; in series [2] (5 μg/ml) it was 61.3 ± 10.6%; in series [2] (10 μg/ml), 88.2 ± 5.3%. Moreover, the “No. died after 24 h” value in [3] (50 mg/kg i.p.) stood at 0; in series [3] (100 mg/kg i.p.), 0; in series [3] (200 mg/kg i.p.), 1; in series [3] (400 mg/kg i.p.) it was 2. Also, the “LD50, intraperitoneally” value in [3] (mice) turned out to be 400 mg per kg.

`CC[C@@H](CO)NCCN[C@@H](CC)CO` [Ethambutol]: the MIC is 2 µg/mL (≈ 9.79 µM) in the series on Strain = H37RV [4] (setting [6]) and 1 µg/mL (≈ 4.89 µM) with Strain = H37RV [4] (setting [7]). The protein binding entry with Strain = H37RV [5] is on record as “(40% protein”.

Take `CC(=O)O[C@H]1C[C@@]2(C)[C@@H](C[C@@H](O)[C@H]3[C@@]4(C)CC[C@@H](O)[C@@H](C)[C@@H]4CC[C@@]32C)/C1=C(\CCC=C(C)C)C(=O)O` [Fusidic acid]: the minimal inhibitory concentration (MIC) with Strain = H37RV [4] (setting [6]) was 32 µg/mL (≈ 61.9 µM); in the series on Strain = H37RV [4] (setting [7]), 8 µg/mL (≈ 15.5 µM). Also, in the series with Strain = H37RV [5], the protein binding entry is “(90% protein”.

Turning to `CC1COc2c(N3CCN(C)CC3)c(F)cc3c(=O)c(C(=O)O)cn1c23` (stereo not drawn) [Ofloxacin], the MIC in the series on Strain = H37RV [4] (setting [6]) and with Strain = H37RV [4] (setting [7]) was 0.5 µg/mL (≈ 1.38 µM) throughout. Further, in the series on Strain = H37RV [5], the protein binding result is recorded as “(5% protein”.

(Values after US6603046B1, “Bis-aromatic a,β-unsaturated ketones” (Lica Pharmaceuticals A/S, priority 1992, dated 2003).)
